In US5521159A, “Partially modified and retro-inverted tetrapeptides analogues of C-reactive protein fragments” (Italfarmaco S.p.A., priority 1992, dated 1996):

Legend:
murine splenocytes = test: Stimulation of in vitro IFN-.tau. production by murine splenocytes (ELISA); assay type: cell-based, BALB/C mice; settings: for IFN-.tau. production, Stimulation index / IFN-.tau. production, U/ml: 24 hours; for IFN-.tau. production, Stimulation index: with respect to untreated cells; for IFN-.tau. production, U/ml: control 31 (Ex.1, Ex.2), 41 (Ex.3)
Protocol: Stimulation of in vitro IFN-.tau. production by murine splenocytes
The splenic cells were obtained from spleen of BALB/C mice as single cells suspension. The splenocytes thus obtained were resuspended in RPMI 1640 culture medium (Flow Lab., Hertz, UK) containing 5% of fetal calf serum (FCS) (HyClone, ST, Utah, USA) at a final concentrazione of 10^7 cells/ml, and incubated in 96-well plates for 24 hours at 37° C. in the presence of the tested compounds at the indicated concentration. At the end of the incubation the supernatant was collected, filtered by […] filter and freezed to -80° C. until the time of the test carried out by ELISA commercial kit (Genzyme, Boston, Mass., USA).

[1] = test system: murine peritoneal macrophages; test: Stimulation of IL-1 production by murine peritoneal macrophages (ELISA); assay type: cell-based, BALB/C mice; settings: 96 hours; for IL-1 production, Stimulation index: with respect to control; for IL-1 production, U/ml: control 15
Source text: Stimulation of IL-1 production by murine peritoneal macrophages
Murine peritoneal macrophages were obtained by inoculation of a solution of hydrolized starch (BDH Chemicals, Poole, Dorset, UK) into the peritoneal cavity of BALB/C. mice, three days before sacrificing the animals. The peritoneal cells were then collected by washing the peritoneal cavity with a solution of RPMI 1640 containing 10% of FCS, and resuspended in the same solution at a concetration of 10^6 cells/ml in 96-well plates. The incubation was performed for 96 hours at 37° C. in the presence of the compounds in question. At the end of the treatment the supernatants were collected and used for dosing cytokine by means of a suitable ELISA commerical kit (Genzyme, Boston, Mass., USA).

murine peritoneal cells = test: Stimulation of the nitric oxide by murine peritoneal cells (chemiluminescence); assay type: cell-based, BALB/C mice; settings: with lipopolysaccharide 30 μg/ml, 96 hours; for nitric oxide, Stimulation index: with respect to control; for nitric oxide content: control 20
Protocol: Stimulation of the nitric oxide by murine peritoneal cells
The peritoneal cells were obtained as described in the previous test, and incubated for 96 hours at 37° C. in the presence of the compounds in question and of lipopolysaccharide at a concentration of 30 μg/ml. At the end of the treatment the supernatants were collected and the nitric oxide content was determined by the chemiluminescence test described by Palmer R. M. J. et al, Nature, 327, 524, 1987.

Leishmania major = test: Effect on the leishmanicidal activity of murine peritoneal macrophage (3H-thymidine incorporation); assay type: cell-based; settings: for 3H-thymidine incorporation by living parasites, cpm (counts per minute): 24 hours pre-incubation of macrophages, control 18,273; for % reduciton of infection: versus control
Protocol: Effect on the leishmanicidal activity of murine peritoneal macrophage
The peritoneal cells collected as described above were seeded in 96-well flat bottom plates (Nunc, Roskiled, DK) at a concentration of 10^5 /100 μl; and incubated per 24 hours at 37° C. At the end of the treatment, the cells not adherent to the well were separated and discharged, whereas the adherent cells were washed three time with culture medium and incubated for 24 hours with the compounds in question, then the cells were infected through a 24 hours incubation with promastigotes of Leishmania major (L. major, PVL49 strain supplied by Dr. Neal R. A., London School of Hygiene and Tropical Medicine, London, UK). At the end of the infection treatment each well was added with 100 μl of a 0.01% solution od sodium dodecylsulphate in RPMI 1640, and the plates were incubated for 30 minutes at 37° C. The Schneider's culture medium (Schneider Drosophila medium, Gibco Lab., Grand island, N.Y., USA) with 30% of FCS was added. Each well was added with 1 μCi of ^3 H-thymidine, and a 72 hours incubation was carried out at 37° C. The incorporation of radioactivity by the living parasites inside the peritoneal cells, which is correlated to the infection degree and consequently to the leishmanicidal activity of the cells, was measured by collecting the cells by means of a cell-harvester and measuring the radioactivity with liquid scintillation β-counter.

[2] = test system: BALB/C mice inoculated with LPS; test: In vivo protection against septic shock (LPS-inoculated mice); settings: LPS 50 mg/kg intraperitoneally, checked for 8 days
Protocol: Evaluation of the in vivo protection against septic shock
BALB/C mice (6 mice/group) weighting between 20 and 25 g, were intraperitoneally inoculated with 50 mg/kg of LPS (lipopolysaccharide-Sigma). The groups, except for the control, were inoculated with increasing doses of one of the compounds of the invention dissolved in physiologic solution having a final volume of 0.5 ml, at time 0 (i.e. together with LPS) or 30 minutes after the LPS inoculation. The mice were checked for 8 days to determined the survival percentage. Compound of Example 1 yields a survival percentage of about 65% at doses of 6.2 ug/mouse and 0.62 ug/mouse, and its isomer B yields a survival percentage of about 80% at a dose of 6.25 ug/mouse and of 75% at a dose of 62.5 ug/mouse.

Row | Molecule | IFN-.tau. production, Stimulation index (murine splenocytes; 0.1 μg/ml) | IFN-.tau. production, U/ml (murine splenocytes; 0.1 μg/ml) [U/ml] | IFN-.tau. production, Stimulation index (murine splenocytes; 1.0 μg/ml) | IFN-.tau. production, U/ml (murine splenocytes; 1.0 μg/ml) [U/ml] | IFN-.tau. production, Stimulation index (murine splenocytes; 10.0 μg/ml) | IFN-.tau. production, U/ml (murine splenocytes; 10.0 μg/ml) [U/ml] | IL-1 production, Stimulation index ([1]; 0.01 μg/ml) | IL-1 production, U/ml ([1]; 0.01 μg/ml) [U/ml] | IL-1 production, Stimulation index ([1]; 0.1 μg/ml) | IL-1 production, U/ml ([1]; 0.1 μg/ml) [U/ml] | IL-1 production, Stimulation index ([1]; 1.0 μg/ml) | IL-1 production, U/ml ([1]; 1.0 μg/ml) [U/ml] | IL-1 production, Stimulation index ([1]; 10.0 μg/ml) | IL-1 production, U/ml ([1]; 10.0 μg/ml) [U/ml] | nitric oxide, Stimulation index (murine peritoneal cells; 0.01 μg/ml) | nitric oxide content (murine peritoneal cells; 0.01 μg/ml) [nmol/mL] | nitric oxide, Stimulation index (murine peritoneal cells; 0.1 μg/ml) | nitric oxide content (murine peritoneal cells; 0.1 μg/ml) [nmol/mL] | nitric oxide, Stimulation index (murine peritoneal cells; 1.0 μg/ml) | nitric oxide content (murine peritoneal cells; 1.0 μg/ml) [nmol/mL] | further results
1 | N=C(N)NCCC[C@H](NC(=O)[C@@H]1CCCN1C(=O)C(CCCCN)C(=O)NCN)C(=O)O (single isomer, unassigned) [Ex.1] | 1.1 | 33 | 1.9 | 60 | 1.6 | 49 | 0.4 | 6 | 0.1 | 2 | 0.1 | 2 | 0.1 | 2 | 2.2 | 43 | 3.0 | 59 | 3.9 | 77 | IFN-.tau. production, Stimulation index (murine splenocytes; 1.0 μg/ml, listed as example 1): doubled; stimulation of IFN-.tau. production, result in words (murine splenocytes; 0.1 to 10.0 μg/ml): the most powerful one of the present class; nitric oxide, Stimulation index (murine peritoneal cells; 10.0 μg/ml): 2.9; nitric oxide content (murine peritoneal cells; 10.0 μg/ml): 57 nmol/mL; 3H-thymidine incorporation by living parasites, cpm (counts per minute) (Leishmania major; 0.1 μg/ml): 5,096 cpm; % reduciton of infection (Leishmania major; 0.1 μg/ml): over 70%; % reduciton of infection (Leishmania major; 0.1 μg/ml, listed as Es. 1): 72%; 3H-thymidine incorporation by living parasites, cpm (counts per minute) (Leishmania major; 1.0 μg/ml): 3,783 cpm; % reduciton of infection (Leishmania major; 1.0 μg/ml): 79%; 3H-thymidine incorporation by living parasites, cpm (counts per minute) (Leishmania major; 10.0 μg/ml): 4,292 cpm; % reduciton of infection (Leishmania major; 10.0 μg/ml): 77%; reduction of the infection degree, result in words (Leishmania major; 0.1 to 10.0 μg/ml): the utmost effective; survival percentage ([2]; 0.62 ug/mouse): about 65%; survival percentage ([2]; 6.2 ug/mouse): about 65%
2 | N=C(N)NCCC[C@H](NC(=O)[C@@H]1CCCN1C(=O)C(CCCCN)C(=O)NCN)C(=O)O (single isomer, unassigned) [isomer B] |  |  |  |  |  |  |  |  |  |  |  |  |  |  |  |  |  |  |  |  | survival percentage ([2]; 6.25 ug/mouse): about 80%; survival percentage ([2]; 62.5 ug/mouse): 75%
3 | H-gThr-(R,S)mLys-Pro-Gln-OH.AcOH [Ex.3] | 1.5 | 60 | 1.5 | 60 | 1.7 | 68 | 10.0 | 150 | 10.7 | 160 | 10.3 | 155 | 9.3 | 140 | 2.5 | 50 | 3.0 | 60 | 3.3 | 66 | nitric oxide, Stimulation index (murine peritoneal cells; 10.0 μg/ml): 4.4; nitric oxide content (murine peritoneal cells; 10.0 μg/ml): 88 nmol/mL; 3H-thymidine incorporation by living parasites, cpm (counts per minute) (Leishmania major; 0.1 μg/ml): 18,826 cpm; % reduciton of infection (Leishmania major; 0.1 μg/ml): -3%; 3H-thymidine incorporation by living parasites, cpm (counts per minute) (Leishmania major; 1.0 μg/ml): 8,377 cpm; % reduciton of infection (Leishmania major; 1.0 μg/ml): 54%; 3H-thymidine incorporation by living parasites, cpm (counts per minute) (Leishmania major; 10.0 μg/ml): 7,842 cpm; % reduciton of infection (Leishmania major; 10.0 μg/ml): 57%
4 | H-gThr-R,S)mLys-Pro-LeU-OH.AcOH [Ex.2] | 1.8 | 57 | 1.7 | 52 | 1.9 | 60 | 6.0 | 90 | 4.0 | 60 | 3.1 | 47 | 3.3 | 50 | 4.3 | 85 | 3.1 | 61 | 3.3 | 66 | nitric oxide, Stimulation index (murine peritoneal cells; 10.0 μg/ml): 4.0; nitric oxide content (murine peritoneal cells; 10.0 μg/ml): 79 nmol/mL; 3H-thymidine incorporation by living parasites, cpm (counts per minute) (Leishmania major; 0.1 μg/ml): 17,568 cpm; % reduciton of infection (Leishmania major; 0.1 μg/ml): 4%; 3H-thymidine incorporation by living parasites, cpm (counts per minute) (Leishmania major; 1.0 μg/ml): 11,991 cpm; % reduciton of infection (Leishmania major; 1.0 μg/ml): 34%; 3H-thymidine incorporation by living parasites, cpm (counts per minute) (Leishmania major; 10.0 μg/ml): 10,582 cpm; % reduciton of infection (Leishmania major; 10.0 μg/ml): 42%
